Measurements as given in PubChem BioAssay AID1549 (Sanford-Burnham Center for Chemical Genomics, 2009).
Activity calls are given as the source filed them. The rule behind the calls is not given here.

Target: Influenza A virus M2 proton channel (A/TW/4845/1999 H1N1)
Assay: M2 proton channel binding, NMR based, influenza A virus H1N1 strain (AID 1549)
Details: NMR binding screen, M2 protein

| Structure (SMILES) | Kd |
| --- | --- |
| Cc1cc(NC(=O)c2ccc3c(c2)OCCO3)no1 | > 4 mM (inactive) |
| CN1CCN(C(=S)c2ccc(N(C)C)cc2)CC1 | > 4 mM (inactive) |
| COc1ccc2nc(NC(=O)c3cnccn3)sc2c1 | > 4 mM (inactive) |
| CC(=O)c1cccc(NC(=O)C=C(C)C)c1 | > 4 mM (inactive) |
| CC(C)c1ccc2c(c1)CCC1[C@](C)(CN)CCC[C@]21C (some centres undefined) | > 4 mM (inactive) |
| CN(C)S(=O)(=O)c1ccc(NC=O)cc1 | > 4 mM (inactive) |
| Cn1c(SCCC(=O)O)nnc1-c1cccnc1 | > 4 mM (inactive) |
| Cc1c(C)[n+](=O)c(-c2cccs2)c(C)n1[O-] | > 4 mM (inactive) |
| CC1(C)N=C2C(=N)C=CC=C2N1O | > 4 mM (inactive) |
| Nc1ccc(C2SCCS2)cc1 | > 4 mM (inactive) |
| Fc1ccc(F)c(CN2CCN(c3ncccn3)CC2)c1 | > 4 mM (inactive) |
| CC(C)=CC(=O)Nc1ccccc1C(N)=O | > 4 mM (inactive) |
| CC(=O)Nc1ccc(NC(=O)/C=C\C(=O)O)cc1 | > 4 mM (inactive) |
| O=C(O)c1ccc2snnc2c1 | > 4 mM (inactive) |
| Nc1cccc2cccnc12 | > 4 mM (inactive) |
| CN(C)C1CCS(=O)(=O)C1 (centres undefined) | > 4 mM (inactive) |
| COC1CC(O[C@H]2CC[C@]3(C=O)C4CC[C@]5(C)C(C6=CC(=O)OC6)CC[C@]5(O)C4CC[C@]3(O)C2)OC(C)C1O (some centres undefined) | > 4 mM (inactive) |
| O=c1oc2c(O)c(O)cc3c(=O)oc4c(O)c(O)cc1c4c23 | > 4 mM (inactive) |
| O=C(c1ccncc1)N1CCN(C(=O)c2ccco2)CC1 | > 4 mM (inactive) |
| Cc1nn(C)c(Cl)c1S(=O)(=O)N1CCOCC1 | > 4 mM (inactive) |
| COC(=O)CC1=Nc2ccccc2NC(=O)C1 | > 4 mM (inactive) |
| Nc1ccc2c(c1)C(=O)OC2 | > 4 mM (inactive) |
| O=c1c(O)c(-c2ccc(O)c(O)c2)oc2cc(O)ccc12 | > 4 mM (inactive) |

| Structure (SMILES) | Kd |
| --- | --- |
| O=C(Nc1cccnc1)c1cnn2cccnc12 | > 4 mM (inactive) |
| O=C(O)CCC(=O)c1c[nH]c2ccccc12 | > 4 mM (inactive) |
| CC(=O)c1cnc(Nc2nc(C)c3ccccc3n2)nc1C | > 4 mM (inactive) |
| O=C1CSC(=O)N1CN1CCOCC1 | > 4 mM (inactive) |
| Cc1ccc(-c2c(C)n([O-])c(C)c(C)[n+]2=O)cc1 | > 4 mM (inactive) |
| Nc1cc(=O)[nH]c(SCC(=O)NCc2ccccc2)n1 | > 4 mM (inactive) |
| O=c1ccn(Cc2ccccc2)c(=O)[nH]1 | > 4 mM (inactive) |
| CC(C)c1c(O)ccc2c1CCC1[C@@](C)(CO)CCC[C@]21C (some centres undefined) | > 4 mM (inactive) |
| Cc1cccnc1NC1=NCC(C)S1 (centres undefined) | > 4 mM (inactive) |
| O=C1CCC(=O)N1c1cccc([N+](=O)[O-])c1 | > 4 mM (inactive) |
| C/C=C/COc1nc2c(c(=O)n(C)c(=O)n2C)n1C | > 4 mM (inactive) |
| Cc1noc(C)c1C(=O)Nc1cccnc1 | > 4 mM (inactive) |
| O=C(O)CC(O)c1nc2ccccc2[nH]1 (centres undefined) | > 4 mM (inactive) |
| CSc1nnc2ccc(-c3cccnc3)nn12 | > 4 mM (inactive) |
| O=C1NC2NC(=O)N(c3ccccc3)C2N1 (centres undefined) | > 4 mM (inactive) |
| C=CCn1c(=S)[nH]c2ccc(Br)cc2c1=O | > 4 mM (inactive) |
| Oc1cc(O)cc(/C=C/c2ccccc2)c1 | > 4 mM (inactive) |
| C=C[C@@](C)(O)CCC1C(=C)C[C@H](OC(C)=O)C2C(C)(C)CCCC12C (some centres undefined) | > 4 mM (inactive) |
| CC(C)CCCC(C)[C@H]1CCC2C3CC[C@@H]4C[C@H](O)CC[C@]4(C)C3CC[C@@]21C (some centres undefined) | > 4 mM (inactive) |
| Cc1ccc2c(c1)CC[C@H]1CC(=O)CC[C@]21C | > 4 mM (inactive) |
| NC1=NC(=O)/C(=C/c2ccc(O)c(Cl)c2)S1 | > 4 mM (inactive) |
| c1cncc(Cn2cccc2)c1 | > 4 mM (inactive) |
| Nc1cccc(-n2cccc2)c1 | > 4 mM (inactive) |

| Structure (SMILES) | Kd |
| --- | --- |
| O=C1CSC(=Nc2ccccc2[N+](=O)[O-])N1 | > 4 mM (inactive) |
| Cc1cc(=O)[nH]c(NCC(=O)O)n1 | > 4 mM (inactive) |
| COc1ccc(-c2cc(=O)c3c(O)cc(O)c(-c4cc(-c5cc(=O)c6c(O)cc(O)cc6o5)ccc4OC)c3o2)cc1 | > 4 mM (inactive) |
| CC(=O)Nc1ccc2c(c1)n(C)c(=O)n2C | > 4 mM (inactive) |
| COc1ccc2c(c1)OCC(Cc1ccc(OC)c(O)c1)C2=O (centres undefined) | > 4 mM (inactive) |
| Cc1nc(SCC#N)c2c3c(sc2n1)CCC3 | > 4 mM (inactive) |
| OCc1ccncc1 | > 4 mM (inactive) |
| O=C(O)CCN1CCOCC1 | > 4 mM (inactive) |
| O=c1c[n+]([O-])c2ccccc2n1OCc1ccccn1 | > 4 mM (inactive) |
| NC[C@H]1O[C@H](O[C@H]2[C@H](O)[C@@H](O[C@H]3O[C@H](CO)[C@@H](O)[C@H](N)[C@H]3O)[C@H](N)C[C@@H]2N)[C@H](N)[C@@H](O)[C@@H]1O | > 4 mM (inactive) |
| O=C(O)/C=C/c1ccc(O)c(O)c1 | > 4 mM (inactive) |
| Nc1cc(=O)[nH]c(=S)n1-c1cccc(C(F)(F)F)c1 | > 4 mM (inactive) |
| COc1cc(OC)c2ccc(=O)oc2c1 | > 4 mM (inactive) |
| CS(=O)(=O)N1CCN(c2ccccc2F)CC1 | > 4 mM (inactive) |
| O=C(O)/C=C(\CC(=O)O)C(=O)O | > 4 mM (inactive) |
| NC1=NC(=O)C(Cc2ccccc2)S1 (centres undefined) | > 4 mM (inactive) |
| CC(=O)O[C@@H]1CC2C(C)(CC[C@H](O)C2(C)C)C2CC[C@]3(C)C(=CC(=O)O[C@H]3c3ccoc3)C21C (some centres undefined) | > 4 mM (inactive) |
| O=C(c1ccncc1)c1ccc(Br)cc1 | > 4 mM (inactive) |
| O=c1ccn([C@@H]2O[C@H](COP(=O)(O)OP(=O)(O)OP(=O)(O)O)[C@@H](O)[C@H]2O)c(=O)[nH]1 | > 4 mM (inactive) |
| O=C(/C=C/c1ccc(O)cc1)c1ccc(O)cc1O | > 4 mM (inactive) |
| Cc1ccsc1/C=c1\sc2ncnn2c1=O | > 4 mM (inactive) |
| CC(=O)Nc1ccc(S(=O)(=O)NC2=NCCS2)cc1 | > 4 mM (inactive) |
| Nc1cccc(NC(=O)c2cccs2)c1 | > 4 mM (inactive) |

| Structure (SMILES) | Kd |
| --- | --- |
| S=c1[nH]nc(-c2cccnc2)n1Cc1ccccc1 | > 4 mM (inactive) |
| Cc1cc(C(=O)N2CCN(c3ncccn3)CC2)c(C)o1 | > 4 mM (inactive) |
| Cc1ccc(C(=O)N2CCC(C(N)=O)CC2)cc1C | > 4 mM (inactive) |
| Cc1cccc(C(C)C)c1NC(=O)c1cccnc1 | > 4 mM (inactive) |
| CC[C@H](/C=C/C(C)C1CCC2C3CCC4=CC(=O)CC[C@]4(C)C3CC[C@]12C)C(C)C (some centres undefined) | > 4 mM (inactive) |
| NCc1ccc2c(c1)OCO2 | > 4 mM (inactive) |
| CC1CN(C(=O)c2ccncc2)CC(C)O1 (centres undefined) | > 4 mM (inactive) |
| CCc1c(C(=O)N2CCOCC2)csc1C | > 4 mM (inactive) |
| CNc1nc(N)c(C(=O)C(C)(C)C)s1 | > 4 mM (inactive) |
| Cn1c(=O)c2c(ncn2CCNC2=NCCC2)n(C)c1=O | > 4 mM (inactive) |
| Cc1cc(=O)[nH]c(N)n1 | > 4 mM (inactive) |
| CCN1CCC(=NO)CC1 | > 4 mM (inactive) |
| C=CCc1ccc2c(c1)OCO2 | > 4 mM (inactive) |
| O=C(Oc1ccc(-c2nnco2)cc1)N1CCOCC1 | > 4 mM (inactive) |
| NC(=O)c1ccccc1N=Cc1ccco1 | > 4 mM (inactive) |
| Cc1nn(-c2ccccc2)c(Cl)c1C(N)=O | > 4 mM (inactive) |
| COC(=O)c1cc2ccccc2cn1 | > 4 mM (inactive) |
| O=c1c2ccccc2[nH]c2ncccc12 | > 4 mM (inactive) |
| COc1ccccc1NC(=O)CCC(=O)O | > 4 mM (inactive) |
| CNC(=O)Oc1ccc2c(c1)[C@]1(C)CCN(C)[C@@H]1N2C | > 4 mM (inactive) |
| CC(=O)Oc1c(C)c(C)c2c(c1C)CCC(C)(CCCC(C)CCCC(C)CCCC(C)C)O2 (centres undefined) | > 4 mM (inactive) |
| Cc1sc2nc(C)n(NC(N)=O)c(=O)c2c1C | > 4 mM (inactive) |
| CCOc1ccc(C)cc1S(=O)(=O)n1ccc(C)n1 | > 4 mM (inactive) |

| Structure (SMILES) | Kd |
| --- | --- |
| O=C(NC(O)C(=O)c1ccccc1)c1ccco1 (centres undefined) | > 4 mM (inactive) |
| COC(=O)c1scc(S(C)(=O)=O)c1-n1cccc1 | > 4 mM (inactive) |
| Cc1ccc2c(C)c(C(=O)Nc3nnc(C)s3)oc2c1 | > 4 mM (inactive) |
| COC(=O)C[C@H]1C(C)(C)C(OC(C)=O)[C@]2(O)C=C3C(CC[C@]4(C)C3CC(=O)O[C@H]4c3ccoc3)C1(C)C2=O (some centres undefined) | > 4 mM (inactive) |
| O=C1Nc2ccccc2C12OCCO2 | > 4 mM (inactive) |
| COc1ccc(-c2ccc(OC)cc2C(=O)O)cc1 | > 4 mM (inactive) |
| NC(=O)C1CCCN1S(=O)(=O)c1ccc(F)cc1 (centres undefined) | > 4 mM (inactive) |
| Nc1ccc(CN2CCS(=O)(=O)CC2)cc1 | > 4 mM (inactive) |
| CCC(C)C(=O)O[C@H]1[C@H](O)C2C(CN3CC(C)CCC3[C@@]2(C)O)C2C[C@]34O[C@]5(O)C(OC(=O)C(C)(O)C(C)O)CC[C@@]3(C)C5C(OC(C)=O)[C@@H](OC(C)=O)C4[C@@]21O (some centres undefined) | > 4 mM (inactive) |
| CS(=O)(=O)c1ccc(N)cc1 | > 4 mM (inactive) |
| C[C@@H]1CCC2[C@](C)(CO)[C@@H](O)CC[C@]2(C)[C@@]12CC[C@@](CO)(CCO)O2 (some centres undefined) | > 4 mM (inactive) |
| O=C1CSC(=S)N1N1C(=O)C2C3C=CC(C3)C2C1=O (centres undefined) | > 4 mM (inactive) |
| C/C(N)=C/C(=O)N1CCCCC1 | > 4 mM (inactive) |
| Cc1cc(=O)cc(C)n1-c1ccccc1N | > 4 mM (inactive) |
| NC1=NC(=O)C(Cc2cccc([N+](=O)[O-])c2)S1 (centres undefined) | > 4 mM (inactive) |
| CSc1nc(NC(C)C)nc(N2CCOCC2)n1 | > 4 mM (inactive) |
| O=C(NC(=S)NCc1cccnc1)c1ccco1 | > 4 mM (inactive) |
| Nc1ccc2[nH]ncc2c1 | > 4 mM (inactive) |
| CC(C)c1nnc(N)s1 | > 4 mM (inactive) |
| O=C(CS(=O)(=O)c1ccccc1)Nc1nccs1 | > 4 mM (inactive) |
| CC1(C)CC(=O)c2cnn(-c3nc4ccccc4[nH]3)c2C1 | > 4 mM (inactive) |
| CC(C)=CCOc1c2occc2cc2ccc(=O)oc12 | > 4 mM (inactive) |
